Experiment [1] addresses T1, Carbonic anhydrase (Candida albicans (strain SC5314 / ATCC MYA-2876) (Yeast), UniProt Q5AJ71).
T1 sequence (Q5AJ71 whole entry): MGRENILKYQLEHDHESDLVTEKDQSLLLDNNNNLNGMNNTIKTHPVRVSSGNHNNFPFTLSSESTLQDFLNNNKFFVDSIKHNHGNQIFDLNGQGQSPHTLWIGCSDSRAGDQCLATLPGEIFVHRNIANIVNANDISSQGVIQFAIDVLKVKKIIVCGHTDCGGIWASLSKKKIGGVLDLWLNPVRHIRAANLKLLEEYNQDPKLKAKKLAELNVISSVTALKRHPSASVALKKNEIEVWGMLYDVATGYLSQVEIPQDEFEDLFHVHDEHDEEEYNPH

Experiment [2] deals with Carbonic anhydrase 1 (Homo sapiens, UniProt P00915).
Chain of Carbonic anhydrase 1 (P00915 whole entry): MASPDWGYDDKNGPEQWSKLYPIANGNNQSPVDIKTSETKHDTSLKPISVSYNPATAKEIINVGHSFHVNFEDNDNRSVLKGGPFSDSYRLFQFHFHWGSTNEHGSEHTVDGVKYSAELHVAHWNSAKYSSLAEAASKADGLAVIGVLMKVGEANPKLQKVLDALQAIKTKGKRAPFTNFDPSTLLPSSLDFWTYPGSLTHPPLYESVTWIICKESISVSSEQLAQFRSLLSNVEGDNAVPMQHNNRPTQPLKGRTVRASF
In experiment [3] the target is Carbonic anhydrase 2 (Homo sapiens, UniProt P00918).

pKi: −log10 of the molar value.

For 13 compounds, Ki results are on record in ChEMBL document CHEMBL1151882, “Carbonic anhydrase inhibitors. Inhibition of the fungal beta-carbonic anhydrases from Candida albicans and Cryptococcus neoformans with boronic acids” (Bioorg Med Chem Lett, 2009).

Usually pKi stands for the Ki on a negative log10 scale, so that one unit is a factor of ten. A higher pKi goes with a small Ki. For `OB(O)c1ccc2ccccc2c1`, the negative logarithm of the Ki (pKi) in experiment [1] is 5.03.
Regarding `OB(O)c1ccc(Br)cc1`, the pKi in experiment [1] was 4.80; in experiment [2] it was 4.93; in experiment [3], 5.15.
As to `COc1ccc(B(O)O)cc1`, the pKi in experiment [1] was 4.81; in experiment [2] it was 4.96; in experiment [3], 5.10.
As for `OB(O)/C=C/c1ccc(-c2ccccc2)cc1`, the pKi was 4.37 in experiment [1] and 3.43 in experiment [3].
For `OB(O)c1ccc(Oc2ccccc2)cc1`, the values for the pKi in experiment [1], in experiment [2] and in experiment [3] were 5.07, 5.22 and 4.94, respectively.
`OB(O)/C=C/Cc1ccccc1`: the pKi in experiment [1] was 3.20; in experiment [2], 5.07; in experiment [3], 4.74.
Regarding `Cc1ccc(/C=C/B(O)O)cc1`, the results for the pKi in experiment [1] and in experiment [3] were 3.34 and 3.21, respectively.
Consider `CCCCc1ccc(B(O)O)cc1`, for which the negative logarithm of the Ki (pKi) in experiment [1] is 5.10.
As to `OB(O)/C=C/c1ccc(-c2ccc(C(F)(F)F)cc2)cc1`, the pKi in experiment [1] is 2.28.
In the case of `OB(O)c1ccc(-c2ccccc2)cc1` [BIPHENYLBORONIC ACID], in experiment [1], the negative logarithm of the Ki (pKi) is 5.11.
Take `OB(O)c1ccccc1` [PHENYLBORONIC ACID]: the negative-log Ki (pKi) in experiment [2] is 2.81; in experiment [3] it was 2.98.
For `OB(O)/C=C/c1ccccc1` [STYRYLBORONIC ACID], the negative logarithm of the Ki (pKi) was 3.11 in experiment [1] and 3.27 in experiment [3].
For `Cc1ccc(B(O)O)cc1` [TOLYL BORONIC ACID], the pKi is 5.05 in experiment [1], 3.56 in experiment [2] and 4.97 in experiment [3].
